Results as given in paper PMC9138545, “Incorporation of Oxidized Phenylalanine Derivatives into Insulin Signaling Relevant Proteins May Link Oxidative Stress to Signaling Conditions Underlying Chronic Insulin Resistance” (Biomedicines, 2022).

Tests used:
total proteins of cells = experiment: HPLC of protein-bound tyrosines (incorporation into cellular proteins); format: cell-based; conditions: cells grown on o-Tyr or m-Tyr; n = 5–10
Experimental: Early passages of mouse embryo fibroblast (3T3-L1) (ATCC, Manassas, VA, US) were cultured in Dulbecco’s modified Eagle medium (DMEM, Sigma Aldrich, Budapest, Hungary, CAT number: D6046; Invitrogen, Waltham, MA, USA, CAT number: 41966-029) supplemented with 100 U/mL penicillin, 0.1 mg/mL streptomycin (Gibco, Budapest, Hungary, CAT number: 15070-063) and 10% heat-inactivated Fetal Bovine Serum (FBS, Gibco, CAT number: 16170-078), supplemented with 398 nM p-, m-, or o-Tyr (equimolar to the original p-Tyr content of the medium) purchased from Sigma (CAT number: para-Tyr: T8566, m-Tyr: T3629, o-Tyr: 93851). Media contained 25 or 5 mmol/L glucose (experiment dependent) pyruvate and L-glutamine. Cells were grown at 37 °C and 5% CO2. Adipocyte differentiation was achieved by DMEM supplemented with 10% FBS (Gibco, Csertex, Budapest, Hungary, CAT number: 10106-169) (FBS) and a […] insulin (Sigma Aldrich, Budapest, Hungary, CAT number: I 9278), […] isobuthylmethylxanthine (Sigma Aldrich, Budapest, Hungary, CAT number: I 5879), and 250 nmol/L dexamethasone (Sigma Aldrich, Budapest, Hungary, CAT number: 861871) containing cocktail. From day 4 onward, cultures were maintained in DMEM containing 1.5 μg/mL insulin and 10% FBS with a medium change every other day until experimental treatments were started. After 90% of the cell population reached the adipocyte phenotype, prior to all treatments, cells were incubated overnight in serum-deprived medium. Experimental treatment was performed in serum-deprived medium containing 200 or 400 nmol/L insulin, for 5 min.
The conditionally immortalized human podocyte cell line (provided by Moin Saleem, University of Bristol, UK) was cultured in RPMI1640 medium (R8756, Sigma Aldrich, Budapest, Hungary) supplemented with 10% heat-inactivated FBS (16170-078, Gibco, Budapest, Hungary), insulin-transferrin-selenium supplement (41400-045, Gibco), 100 U/mL penicillin, 0.1 mg/mL streptomycin (P4333, Sigma), and […] (equimolar to the original p-Tyr content of the medium) para-, meta-, or ortho-Tyr. The cells were grown at 33 °C 5% CO2, and when they reached 40–60% confluency they were transferred to 37 °C to differentiate. Following the thermoswitching, cells were kept on RPMI1640 medium containing 2% FBS, antibiotics, and different tyrosines. Before every treatment, cells were incubated in serum-deprived medium overnight. […]
The total protein-bound cellular tyrosine content was measured by adding 200 μL of distilled water to the samples, followed by freezing overnight at −70 °C to achieve cell lysis. […]

concomitant tumor growth = conditions: ref [42]; cited from earlier work
Description: (§1) Furthermore, m- and o-Tyr may have a role beyond being markers ROS attack. […] For example, we have described that patients on renal replacement therapy show a connection between plasma levels of o-Tyr and erythropoietin (EPO) resistance. In a further set of experiments, m- and o-Tyr in ...

plants = conditions: ref [41]; cited from earlier work
Description: as §1

Row | SMILES | protein-bound o-Tyr/p-Tyr and m-Tyr/p-Tyr ratio (total proteins of cells) | protein-bound p-Tyr/Phe ratio (total proteins of cells) | inhibition of concomitant tumor growth (concomitant tumor growth) | natural herbicide, plant growth (plants)
1 | NC(Cc1ccccc1O)C(=O)O (stereo not drawn) [o-Tyr, ortho-tyrosine] | increased | either a decrease or remained unchanged | – | –
2 | N[C@@H](Cc1cccc(O)c1)C(=O)O [m-Tyr, meta-tyrosine] | increased | either a decrease or remained unchanged | involved in the inhibition of concomitant tumor growth | act as a natural herbicide and inhibit the growth of plants
